Data as given in patent US12678518B2, “Theranostic probe and its use for targeting and/or labeling the EGFR kinase and/or the cells expressing EGFR or its family members” (Tianjin University, priority 2019, dated 2026).

Assays:
[1] = biological target: T1, EGFR wild type (Homo sapiens, UniProt P00533); assay: Flowcytometry of PDCy3 binding to EGFR-transfected HEK293T cells (cell sorting); format: cell-based
T1 construct: plasmids encoding human EGFR (1-988) and split YFP fragments; host or cells: HEK 293T
Experimental: Cell sorting. […] After 30-minute incubation on ice, cells were washed twice with 500 μl/well PBS, and were re-suspended in […]. Then, 0.3 μl FITC-labelled secondary antibody at a concentration of 2 mg/ml was added to each sample. After incubation on ice for 30 minutes, cells were washed three times with PBS, re-suspended in 400 μl/well PBS, and analyzed by flowcytometry using a BD FACS Calibur machine.
The binding abilities of the PDCy3 probe to EGFR-expressed cells were compared by flowcytometry under different conditions.
We compared the efficiencies in labelling EGFR over-expressed cells versus those non-over-expressed cells under different PDCy3 concentrations (FIG. 3A).
Cell sorting. […] After 30-minute incubation on ice, cells were washed twice with 500 μL/well PBS, and were re-suspended in 400 μL PBS. Then, 0.3 μL FITC-labelled secondary antibody at a concentration of 2 mg/mL was added to each sample. After incubation on ice for 30 minutes, cells were washed three times with PBS, re-suspended in 400 μL/well PBS, and analyzed by floweytometry using a BD FACS Calibur machine.
The binding abilities of PDCy3 to EGFR-expressed and non-expressed cells were compared by flowcytometry under different conditions.
To characterize the specificity of PDCy3, we compared the efficiencies in labelling EGFR over-expressed cells versus those non-over-expressed cells under different PDCy3 concentrations (FIG. 3A).

[2] = biological target: T2, EGFR V924R (Homo sapiens, UniProt P00533, V948R); assay: Flowcytometry of PDCy3 binding to cells expressing EGFR V924R mutant; format: cell-based; settings: 1 μM PDCy3
T2 construct: plasmids encoding human EGFR (1-988) and split YFP fragments; expressed in transfected cells; host or cells: HEK 293T
Experimental: Cell sorting. Following starvation in EX-Cell 293 Serum-Free Medium for 44 hours, transfected cells were treated with gefitinib, PDCy3, or EGF for 4 hours at 37° C. Then, the cells were washed twice with 500 μl/well ice-cold PBS, and were re-suspended in 400 μl/well PBS. The final cell density was estimated to be 5×10^5˜1×10^6 cells/ml. To detect EGFR expression, 3 μd anti-EGFR 528 antibody (santa cruz biotechnology inc, USA) at 200 μg/ml concentration was added to each well of re-suspended cells. After 30-minute incubation on ice, cells were washed twice with 500 μl/well PBS, and were re-suspended in […]. Then, 0.3 μl FITC-labelled secondary antibody at a concentration of 2 mg/ml was added to each sample. After incubation on ice for 30 minutes, cells were washed three times with PBS, re-suspended in 400 μl/well PBS, and analyzed by flowcytometry using a BD FACS Calibur machine.
Cell sorting. Following starvation in EX-Cell 293 Serum-Free Medium for 44 hours, transfected cells were treated with gefitinib, PDCy3, or EGF for 4 hours at 37° C. Then, the cells were washed twice with 500 μL/well ice-cold PBS, and were re-suspended in 400 μL/well PBS. The final cell density was estimated to be 5×10^5˜1×10^6 cells/mL. […] After incubation on ice for 30 minutes, cells were washed three times with PBS, re-suspended in 400 μL/well PBS, and analyzed by floweytometry using a BD FACS Calibur machine.

## CN1/C(=C/C=C/C2=[N+](CCCCCC(=O)NCCC/C=C/C(=O)Nc3ccc4ncnc(Nc5cccc(Br)c5)c4c3)c3ccc(S(=O)(=O)O)cc3C2(C)C)C(C)(C)c2cc(S(=O)(=O)[O-])ccc21 [PDCy3, 1-(6-((E)-6-(4-(3-bromophenylamino)quinazolin-6-ylamino)-6-oxohex-4-enylamino)-6-oxohexyl)-3,3-dimethyl-2-((1E,3E)-3-(1,3,3-trimethyl-5-sulfonatoindolin-2-ylidene)prop-1-enyl)-3H-indolium-5-sulfonate]
[1]; 10 nM EGF
  effect of EGF treatment on binding of PDCy3 to EGFR-expressed cells: did not enhance
[1]; 1 μM PDCy3, transfected HEK293T cells
  EGFR positive cells labeled by the probe: over 84.9%
[1]; 293T cells transfected with the WT receptor
  sensitivity of transfected cells to PDCy3 in flowcytometry: high sensitivity
[1]; in the presence of EGF (10 nM), 1 μM PDCy3, no gefitinib
  population of EGFR-expressed, PDCy3 positive cells: 45.4%
[1]; in the presence of EGF, no gefitinib
  fraction of EGFR-expressed, PDCy3 positive cells relative to the total EGFR-expressed cells: 24.9%
[1]; in the presence of EGF, no gefitinib, mean fluorescent intensity times fraction of PDCy3+/EGFR+ cells
  relative bound PDCy3: 45.4 a.u.
[1]; wild type EGFR, 1 μM PDCy3
  population (fraction) of PDCy3-bound, EGFR positive cells: 52.4%
[2]
  enhancement of PDCy3 binding (fraction of PDCy3-bound cells) by V924R mutation: 8%
